Laboratory results from patent US8603227B2, “Composition for prevention of influenza viral infection comprising tannic acid, air filter comprising the same and air cleaning device comprising the filter” (Woongjin Coway Co., Ltd., priority 2009, dated 2013).

Columns and labels:
Assay type in all cases: cell-based, influenza A virus subtype H1N1
[1] = system: new influenza A (H1N1) (A/California/O4/09); assay: Plaque assay of tannic acid against new influenza A (H1N1) A/California/O4/09 on MDCK cells
Protocol: (§1) Tannic acid was assayed for inhibitory activity against influenza virus as follows.
(§2) As influenza virus strains to be tested, influenza A subtype H1N1 viruses A/PR/8 (H1N1) and A/WSN (H1N1) as well as the WHO standard strain influenza A (H1N1) (A/California/O4/09), which was responsible for the declaration of the 2009 pandemic, were used.
(§3) Tannic acid was used as a sample in the following procedure.
(§4) The MDCK (Mardine Darbine Canine Kidney) cell line was inoculated at a density of 1.5×10^6 cells/mL into 6-well plates which were then incubated at 37° C. for 24 his in a 5% CO2 atmosphere. Separately, tannic acid was diluted to 100 mg/ml (1×) in an injection solution. The dilution was subjected to serial 10-fold dilutions. The specimens thus obtained were added in an amount of 90 μL per well to 96-well plates. 10 uL of an influenza virus sample was added to each well, incubated for 10 min, and 10-fold diluted with PBS. The MDCK cell line which had grown to confluence on the plates was infected with 1 mL of the dilution and incubated for 1 hr. For an “infection+non-administration” control, the MDCK cell line was infected with influenza virus which had not been treated with tannic acid.
(§5) Thereafter, the medium was removed, and a mixture of 1:1 2× agarose:2×MEM containing 10 μg/ml trypsin was added in an amount of 2 mL per well. […]

[2] = system: influenza A/WSN/33 (H1N1); assay: Plaque assay of tannic acid against influenza A/WSN/33 (H1N1) on MDCK cells
Protocol: as §1, §2, §3, §4, §5

influenza A/PR/8 (H1N1) = assay: Plaque assay of tannic acid against influenza A/PR/8 (H1N1) on MDCK cells
Protocol: as §1, §2, §3, §4, §5

[3] = (1-treated/control)x100, MDCK plaque count
[4] = virus incubated 10 min with tannic acid, MDCK plaque count

O=C(OC[C@H]1O[C@@H](OC(=O)c2cc(O)c(O)c(OC(=O)c3cc(O)c(O)c(O)c3)c2)[C@H](OC(=O)c2cc(O)c(O)c(OC(=O)c3cc(O)c(O)c(O)c3)c2)[C@@H](OC(=O)c2cc(O)c(O)c(OC(=O)c3cc(O)c(O)c(O)c3)c2)[C@@H]1OC(=O)c1cc(O)c(O)c(OC(=O)c2cc(O)c(O)c(O)c2)c1)c1cc(O)c(O)c(OC(=O)c2cc(O)c(O)c(O)c2)c1 [Tannic Acid, Tannic acid]
Inhibitory Activity [1, 3]: 99.99% | Virus Titer [1, 4]: Not-detected | Inhibitory Activity [2, 3]: 99.99% | Virus Titer [2, 4]: Not-detected | Inhibitory Activity (influenza A/PR/8 (H1N1); [3]): 99.99% | Virus Titer (influenza A/PR/8 (H1N1); [4]): Not-detected
